Measurements: patent US9107411B2, “Indolecarboxamides and benzimidazolecarboxamides as insecticides and acaricides” (BAYER INTELLECTUAL PROPERTY GMBH, priority 2011, dated 2015)
Like-named read-outs stand apart in the source and are kept apart here.

Columns and labels:
Boophilus microplus = Boophilus microplus test (BOOPMI injection); type: in vivo; details: application rate 20 μg/animal; injected into the abdomen; after 7 days
Experimental: Boophilus microplus Test (BOOPMI Injection) Solvent: dimethyl sulphoxide To prepare an appropriate active ingredient formulation, 10 mg of active ingredient are mixed with 0.5 ml of solvent and the concentrate is diluted with solvent to the desired concentration. The active ingredient solution is injected into the abdomen (Boophilus microplus), and the animals are transferred into dishes and stored in a climate-controlled room. After 7 days, the efficacy in % is determined. The activity is assessed by laying of fertile eggs. 100% means that none of the ticks has laid any fertile eggs.

Spodoptera frugiperda = Spodoptera frugiperda test (SPODFR spray treatment); type: in vivo; details: application rate 100 g/ha; maize leaf discs; after 7 days
In short: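 Mortality read-out at 7 days, given as % efficacy, where 100% means every caterpillar dead and 0% none. Caterpillars were placed on dried maize leaf discs that had been sprayed with test formulation. That formulation was an acetone/dimethylformamide concentrate diluted in emulsifier-containing water.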

logP (HPLC-MS) = type: physicochemical
Lucilia cuprina larvae = experiment: Lucilia cuprina test (LUCICU); type: in vivo; details: application rate 100 ppm; treated horse meat; after 2 days
Experimental: (§1) Lucilia cuprina Test (LUCICU) Solvent: dimethyl sulphoxide To prepare an appropriate active ingredient formulation, 10 mg of active ingredient are mixed with 0.5 ml of dimethyl sulphoxide and the concentrate is diluted with water to the desired concentration. Vessels containing horse meat treated with the active ingredient formulation of the desired concentration are populated with about 20 Lucilia cuprina larvae. After 2 days, the kill in % is determined. 100% means that all of the larvae have been killed; 0% means that none of the larvae have been killed.

Ctenocephalides felis = Ctenocephalides felis oral (CTECFE); type: in vivo; details: application rate 100 ppm in citrated cattle blood; after 2 days
Experimental: Ctenocephalides felis Oral ([…]) Solvent: 1 part by weight of dimethyl sulphoxide For the purpose of preparing an appropriate active ingredient formulation, 10 mg of active ingredient are mixed with 0.5 ml of dimethyl sulphoxide. A portion of the concentrate is diluted with citrated cattle blood, and the desired concentration is prepared. About 20 unfed adult fleas (Ctenocephalides felis) are placed into a chamber which is closed at the top and bottom with gauze. A metal cylinder whose bottom end is closed with Parafilm is placed onto the chamber. The cylinder contains the blood/active ingredient formulation, which can be imbibed by the fleas through the Parafilm membrane. After 2 days, the kill in % is determined 100% means that all of the fleas have been killed; 0% means that none of the fleas have been killed.

Phaedon cochleariae = experiment: Phaedon test (PHAECO spray treatment); type: in vivo; details: application rate 100 g/ha, Chinese cabbage leaf discs, after 7 days
In short: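 Larval mortality was assessed 7 days after Phaedon cochleariae larvae were placed on dried, spray-treated Brassica pekinensis leaf discs. The formulation was an acetone/dimethylformamide concentrate with alkylaryl polyglycol ether emulsifier, diluted in emulsifier-containing water. Results are given as % kill, from 0 (no larvae dead) to 100 (all dead).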

Tetranychus urticae = experiment: Tetranychus test, OP-resistant (TETRUR spray treatment); type: in vivo; details: bean leaf discs, after 6 days
In short: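 Bean leaf discs infested with all stages of OP-resistant T. urticae sprayed with compound formulated in acetone/DMF plus alkylaryl polyglycol ether emulsifier, diluted in water. Efficacy (% mites killed) scored after 6 days.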

adult Musca domestica = experiment: Musca domestica test (MUSCDO); type: in vivo; details: application rate 100 ppm; treated sponge; after 2 days
Experimental: as §1, with “Musca domestica” for “Lucilia cuprina”, “(MUSCDO)” for “(LUCICU)”, “a sponge” for “horse meat”, “adult Musca domestica.” for “about 20 Lucilia cuprina larvae.”, “determined” for “determined.”, “flies” for “larvae”

[1] = HPLC, reversed-phase column (C18), acidic range pH 2.7, acetonitrile (0.1% formic acid)/water gradient, 43° C., calibration with unbranched alkan-2-ones

CCn1c(C(=O)NC(c2cccc(C(F)(F)F)c2)C(F)(F)F)cc2cc(C(=O)NC3(C#N)CCC3)c(Cl)cc21 (stereo not drawn) [Compound 36]
efficacy (laying of fertile eggs) (Boophilus microplus): 100%
efficacy in % (Spodoptera frugiperda): 100%
log p (logP (HPLC-MS); [1]): 4.09
efficacy (kill in %) (Lucilia cuprina larvae): 95%
efficacy (kill in %) (Ctenocephalides felis): 100%
efficacy in % (Phaedon cochleariae): 100%
efficacy in % (Tetranychus urticae; application rate 100 g/ha): 100%

Cn1c(C(=O)NC(c2ccc(F)c(Br)c2)C(F)(F)F)cc2cc(C(=O)NC3(C#N)CC3)c(Cl)cc21 (stereo not drawn) [Compound 52]
efficacy (laying of fertile eggs) (Boophilus microplus): 100%
efficacy in % (Spodoptera frugiperda): 100%
log p (logP (HPLC-MS); [1]): 3.44
efficacy (kill in %) (Lucilia cuprina larvae): 100%
efficacy (kill in %) (adult Musca domestica): 100%
efficacy (kill in %) (Ctenocephalides felis): 100%
efficacy in % (Phaedon cochleariae): 100%
efficacy in % (Tetranychus urticae; application rate 100 g/ha): 100%

Cn1c(C(=O)NC(c2ccc(F)c(C(F)(F)F)c2)C(F)(F)F)cc2cc(C(=O)NC3CC3)c(Cl)cc21 (stereo not drawn) [Compound 49]
efficacy (laying of fertile eggs) (Boophilus microplus): 100%
efficacy in % (Spodoptera frugiperda): 100%
log p (logP (HPLC-MS); [1]): 3.70
efficacy (kill in %) (Lucilia cuprina larvae): 100%
efficacy (kill in %) (adult Musca domestica): 100%
efficacy (kill in %) (Ctenocephalides felis): 98%
efficacy in % (Phaedon cochleariae): 100%
efficacy in % (Tetranychus urticae; application rate 100 g/ha): 100%

C=CCn1c(C(=O)NC(c2cccc(C(F)(F)F)c2)C(F)(F)F)cc2cc(C(=O)NC3(C#N)CC3)c(Cl)cc21 (stereo not drawn) [Compound 283]
efficacy (laying of fertile eggs) (Boophilus microplus): 100%
efficacy in % (Spodoptera frugiperda): 100%
log p (logP (HPLC-MS); HPLC, reversed-phase column (C18), 43° C., acidic range pH 2.7, EEC directive 79/831 Annex V.A8, two values = both regioisomers (G = N)): 3.74
efficacy (kill in %) (Lucilia cuprina larvae): 100%
efficacy (kill in %) (adult Musca domestica): 90%
efficacy (kill in %) (Ctenocephalides felis): 100%
efficacy in % (Phaedon cochleariae): 100%
efficacy in % (Tetranychus urticae; application rate 100 g/ha): 100%

Cn1c(C(=O)NC(c2cccc(Br)c2)C(F)(F)F)cc2cc(C(=O)NC3(C#N)CC3)c(Cl)cc21 (stereo not drawn) [Compound 48]
efficacy (laying of fertile eggs) (Boophilus microplus): 100%
efficacy in % (Spodoptera frugiperda): 100%
log p (logP (HPLC-MS); [1]): 3.39
efficacy (kill in %) (Lucilia cuprina larvae): 100%
efficacy (kill in %) (Ctenocephalides felis): 100%
efficacy in % (Phaedon cochleariae): 100%
efficacy in % (Tetranychus urticae; application rate 100 g/ha): 100%

Cn1c(C(=O)NC(c2ccc(F)c(C(F)(F)F)c2)C(F)(F)F)cc2cc(C(=O)NC3(C#N)CC3)c(Cl)cc21 (stereo not drawn) [Compound 50]
efficacy (laying of fertile eggs) (Boophilus microplus): 100%
efficacy in % (Spodoptera frugiperda): 100%
log p (logP (HPLC-MS); [1]): 3.52
efficacy (kill in %) (Lucilia cuprina larvae): 100%
efficacy (kill in %) (adult Musca domestica): 100%
efficacy (kill in %) (Ctenocephalides felis): 100%
efficacy in % (Phaedon cochleariae): 100%
efficacy in % (Tetranychus urticae; application rate 100 g/ha): 100%

C#CCn1c(C(=O)NC(c2ccc(F)c(Cl)c2)C(F)(F)F)cc2cc(C(=O)NC3CC3)c(Cl)cc21 (stereo not drawn) [Compound 63]
efficacy (laying of fertile eggs) (Boophilus microplus): 100%
efficacy in % (Spodoptera frugiperda): 100%
log p (logP (HPLC-MS); [1]): 3.57
efficacy (kill in %) (Lucilia cuprina larvae): 100%
efficacy (kill in %) (adult Musca domestica): 100%
efficacy (kill in %) (Ctenocephalides felis): 100%
efficacy in % (Phaedon cochleariae): 100%
efficacy in % (Tetranychus urticae; application rate 100 g/ha): 100%

CCn1c(C(=O)NC(c2ccc(F)c(Cl)c2)C(F)(F)F)cc2cc(C(=O)NC3(C#N)CC3)c(Cl)cc21 (stereo not drawn) [Compound 20]
efficacy (laying of fertile eggs) (Boophilus microplus): 100%
efficacy in % (Spodoptera frugiperda): 100%
log p (logP (HPLC-MS); [1]): 3.79
efficacy (kill in %) (Lucilia cuprina larvae): 100%
efficacy (kill in %) (adult Musca domestica): 100%
efficacy (kill in %) (Ctenocephalides felis): 100%
efficacy in % (Phaedon cochleariae): 100%
efficacy in % (Tetranychus urticae; application rate 100 g/ha): 80%

C#CCn1c(C(=O)NC(c2ccc(F)c(Br)c2)C(F)(F)F)cc2cc(C(=O)NC3(C#N)CC3)c(Cl)cc21 (stereo not drawn) [Compound 62]
efficacy (laying of fertile eggs) (Boophilus microplus): 100%
efficacy in % (Spodoptera frugiperda): 100%
log p (logP (HPLC-MS); [1]): 3.57
efficacy (kill in %) (Lucilia cuprina larvae): 100%
efficacy (kill in %) (adult Musca domestica): 80%
efficacy (kill in %) (Ctenocephalides felis): 100%
efficacy in % (Phaedon cochleariae): 100%
efficacy in % (Tetranychus urticae; application rate 100 g/ha): 90%

CCn1c(C(=O)NC(c2cccc(Cl)c2)C(F)(F)F)cc2cc(C(=O)NC3CC3)c(Cl)cc21 (stereo not drawn) [Compound 2]
efficacy (laying of fertile eggs) (Boophilus microplus): 100%
efficacy in % (Spodoptera frugiperda): 100%
log p (logP (HPLC-MS); [1]): 3.65
efficacy (kill in %) (Lucilia cuprina larvae): 100%
efficacy (kill in %) (Ctenocephalides felis): 95%
efficacy in % (Phaedon cochleariae): 100%
efficacy in % (Tetranychus urticae; application rate 500 g/ha): 100%

CCn1c(C(=O)NC(c2cccc(Br)c2)C(F)(F)F)cc2cc(C(=O)NC3(C#N)CC3)c(Cl)cc21 (stereo not drawn) [Compound 41]
efficacy (laying of fertile eggs) (Boophilus microplus): 100%
efficacy in % (Spodoptera frugiperda): 100%
log p (logP (HPLC-MS); [1]): 3.75
efficacy (kill in %) (Lucilia cuprina larvae): 100%
efficacy (kill in %) (Ctenocephalides felis): 100%
efficacy in % (Tetranychus urticae; application rate 100 g/ha): 100%

C#CC1(NC(=O)c2cc3cc(C(=O)NC(c4cccc(C(F)(F)F)c4)C(F)(F)F)n(CC)c3cc2Cl)CC1 (stereo not drawn) [Compound 32]
efficacy (laying of fertile eggs) (Boophilus microplus): 100%
log p (logP (HPLC-MS); [1]): 3.86
efficacy (kill in %) (Lucilia cuprina larvae): 100%
efficacy (kill in %) (Ctenocephalides felis): 100%
efficacy in % (Phaedon cochleariae): 100%
efficacy in % (Tetranychus urticae; application rate 100 g/ha): 100%

CCn1c(C(=O)NC(c2cccc(C(F)(F)F)c2)C(F)(F)F)cc2cc(C(=O)NC3(C(=O)OC)CC3)c(Cl)cc21 (stereo not drawn) [Compound 28]
efficacy (laying of fertile eggs) (Boophilus microplus): 100%
efficacy in % (Spodoptera frugiperda): 83%
log p (logP (HPLC-MS); [1]): 3.86
efficacy (kill in %) (Lucilia cuprina larvae): 100%
efficacy (kill in %) (Ctenocephalides felis): 95%
efficacy in % (Phaedon cochleariae): 100%
efficacy in % (Tetranychus urticae; application rate 500 g/ha): 100%

CCn1c(C(=O)NC(c2cccc(C(F)(F)F)c2)C(F)(F)F)cc2cc(C(=O)NC(C)(C)C#N)c(Cl)cc21 (stereo not drawn) [Compound 15]
efficacy (laying of fertile eggs) (Boophilus microplus): 100%
efficacy in % (Spodoptera frugiperda): 100%
log p (logP (HPLC-MS); [1]): 3.89
efficacy (kill in %) (Lucilia cuprina larvae): 100%
efficacy (kill in %) (adult Musca domestica): 100%
efficacy (kill in %) (Ctenocephalides felis): 100%
efficacy in % (Phaedon cochleariae): 100%

CCn1c(C(=O)NC(c2cccc(C(F)(F)F)c2)C(F)(F)F)cc2cc(C(=O)NCC(C)(F)F)c(Cl)cc21 (stereo not drawn) [Compound 10]
efficacy (laying of fertile eggs) (Boophilus microplus): 100%
efficacy in % (Spodoptera frugiperda): 83%
log p (logP (HPLC-MS); [1]): 4.06
efficacy (kill in %) (Lucilia cuprina larvae): 100%
efficacy (kill in %) (adult Musca domestica): 100%
efficacy (kill in %) (Ctenocephalides felis): 95%
efficacy in % (Phaedon cochleariae): 100%

CCn1c(C(=O)NC(c2cccc(C(F)(F)F)c2)C(F)(F)F)cc2cc(C(=O)NC(C)CF)c(Cl)cc21 (stereo not drawn) [Compound 8]
efficacy (laying of fertile eggs) (Boophilus microplus): 100%
efficacy in % (Spodoptera frugiperda): 100%
log p (logP (HPLC-MS); [1]): 3.88
efficacy (kill in %) (Lucilia cuprina larvae): 100%
efficacy (kill in %) (Ctenocephalides felis): 95%
efficacy in % (Phaedon cochleariae): 100%

CCn1c(C(=O)NC(c2cccc(Cl)c2)C(F)(F)F)cc2cc(C(=O)NC3(C#N)CC3)c(Cl)cc21 (stereo not drawn) [Compound 39]
efficacy (laying of fertile eggs) (Boophilus microplus): 100%
efficacy in % (Spodoptera frugiperda): 100%
log p (logP (HPLC-MS); [1]): 3.67
efficacy (kill in %) (Lucilia cuprina larvae): 100%
efficacy (kill in %) (Ctenocephalides felis): 100%
efficacy in % (Phaedon cochleariae): 100%
efficacy in % (Tetranychus urticae; application rate 100 g/ha): 100%

CCn1c(C(=O)NC(c2cccc(C(F)(F)F)c2)C(F)(F)F)cc2cc(C(=O)NC(CF)CF)c(Cl)cc21 (stereo not drawn) [Compound 11]
efficacy (laying of fertile eggs) (Boophilus microplus): 100%
log p (logP (HPLC-MS); [1]): 3.86
efficacy (kill in %) (Lucilia cuprina larvae): 100%
efficacy (kill in %) (Ctenocephalides felis): 80%
efficacy in % (Phaedon cochleariae): 100%

CCn1c(C(=O)NC(c2ccc(F)c(C(F)(F)F)c2)C(F)(F)F)cc2cc(C(=O)NCC(F)F)c(Cl)cc21 (stereo not drawn) [Compound 19, 6-chloro-N^5-(2,2-difluoroethyl)-1-ethyl-N^2-{2,2,2-trifluoro-1-[4-fluoro-3-(trifluoromethyl)phenyl]ethyl}-1H-indole-2,5-dicarboxamide]
efficacy (laying of fertile eggs) (Boophilus microplus): 100%
chromatographic logP (logP (HPLC-MS); HPLC, reversed-phase column (C18), acidic range pH 2.7, acetonitrile (0.1% formic acid)/water gradient, 43° C., calibration with unbranched alkan-2-ones, read-out: log p): 4.03
chromatographic logP (logP (HPLC-MS); HPLC-MS): 5.16
efficacy (kill in %) (Lucilia cuprina larvae): 100%
efficacy (kill in %) (adult Musca domestica): 100%
efficacy (kill in %) (Ctenocephalides felis): 100%
pest or weed control at 100 g/ha (Phaedon cochleariae; Phaedon cochleariae, foliar, 168 h, read-out: efficacy in %): 100%
